Columns and labels:
HeLa cells = assay: FACS cell cycle analysis (PI), HeLa; type: cell-based, human
Description: It is well documented that PLK1 is involved in multiple steps in mitosis, such as centrosome maturation and establishment of bipolar spindle. […] Therefore, the down-regulation of PLK1 would change the distribution of cells in different cell cycle stages. To test this possibility, fluorescence-activated cell sorter (FACS) analysis was used to analyze the DNA content of HeLa cells treated with the identified PLK1 inhibitors, DH281, DH285, and DH287. HeLa cells were first incubated in the absence and presence of these compounds at different concentrations (0, 0.12, 0.48 and 1.92 µM) for 48 hr. […] Treatment with a lower concentration of the compounds (0.12 and 0.48 µM) also led to an obvious increase of the cell population in G2/M phase (Figure 4A, Table 3). Moreover, the proportion of HeLa cells in G2/M phase increased over time after incubation in the presence of 0.8 µM of DH281, DH285 and DH287 (Figure 4B, Table 4). […] We also determined the cell cycle distribution of the non-cancer MRC5 cells after treatment with DH281 at different concentrations. […] It is also possible that inhibition of the kinase activity of the whole PLK family by beta-carboline compounds results in the defect in cell cycle progression.
[…] The floated and attached cells were treated by trypsinization and washed with cold PBS. The cells were then fixed with 70% (v/v) ethanol at 4°C overnight. The fixed cells were washed twice with PBS and incubated with 50 µg/mL RNase A (Sigma, USA) and 50 µg/mL propidium iodide (PI) (Sigma, USA) at 37°C for 30 min.

PC3 cells = assay: MTT cell proliferation assay, PC3; type: cell-based; conditions: Homo sapiens, PC-3, 48 hr
Text: (§1) BI2536 was purchased from Selleck (Selleck, USA).

MG63 cells = assay: MTT cell proliferation assay, MG63; type: cell-based; conditions: Homo sapiens, MG-63, 48 hr
Text: as §1

CDK1/cyclinB(h) = CDK1/cyclinB(h) (Homo sapiens, UniProt P06493); assay: In vitro kinase assay CDK1/cyclinB (33P-ATP); type: biochemical
Description: (§2) The inhibition of PLK1 kinase activity was assessed using the Cyclex PLK1 Assay/Inhibitor Screening Kit (MBL International Corporation, Japan). The kit includes anti-phospho-threonine polyclonal antibody (PPT-07) and peroxidase coupled anti-rabbit IgG antibody as a reporter in a 96-well ELSIA format. Compounds were used at the concentrations from 10^− ^3 to 10^2 µg/ml and the absorbance was determined at 450 nm. A similar protocol was used to determine the kinase inhibition for PLK2, PLK3, Aurora A and Aurora B. The kinase activity of CDK1/cyclinB and CDK2/cyclinE was analyzed in the presence of serially diluted inhibitors. For each reaction, 20 ng of recombinant kinase was used and […] casein from bovine milk (Sigma) was added as the kinase substrate. The kinase reaction buffer contains 8 mM MOPS pH7.0, 0.2 mM EDTA, 0.1 mg/ml histone H1, 10 mM and MgAcetace and [γ^− ^33P-ATP] (500 cpm/pmol). The reaction was initiated by adding the MgATP mix. After incubation for 40 minutes at room temperature, the reaction was stopped by the addition of 3% phosphoric acid solution. We spotted 10 µl of the reaction mixture onto a P30 filtermat and washed three times for 5 min with 75 mM phosphoric acid and once with methanol prior to drying and scintillation counting.

HepG2 cells = assay: MTT cell proliferation assay, HepG2; type: cell-based; conditions: Homo sapiens, 48 hr
Text: as §1

[1] = system: cdc5-2 mutant yeast cells; assay: Yeast growth inhibition (MIC), cdc5-2 mutant; conditions: 25°C, 24 hr
Description: The Cdc5 kinase is the functional homologue of PLK1 in budding yeast and the incubation of cdc5-2 mutants at 37°C impairs the kinase activity and stops cell growth. […] We also compared the sensitivity of wild-type and cdc5-2 mutant cells to the selected compounds at different concentrations. […] The temperature sensitive cdc5-2 mutants and wild-type strains were used. […] After incubation at 25°C for 24 hr, the growth of the yeast cells was determined by measuring OD600.

PLK2 = PLK2 (Homo sapiens, UniProt Q9NYY3); assay: In vitro kinase assay PLK2; type: biochemical
Description: as §2

[2] = system: cyclin B1 protein in HeLa cells; assay: Cyclin B1 protein level (Western blotting, FACS); type: cell-based, human; conditions: 1.21 µM, 24 hr
Description: As the inhibitory kinase for cyclin-dependent kinase (CDK), Wee1 is one of the substrates of PLK1 and this phosphorylation stimulates Wee1 degradation. We expect that the inhibition of PLK1 impairs the phosphorylation of Wee1, thereby resulting in elevated Wee1 protein levels. To test this possibility, we examined the protein levels of Wee1 in HeLa cells after treatment with 1.21 µM beta-carboline compounds for 24 hr. […] PLK1 also phosphorylates cyclin B1 and this phosphorylation promotes the nuclear localization of cyclin B1 [36]. After treatment with these beta-carboline compounds, a slight increase of cyclin B1 protein was observed (Figure 6B), and this increase could be a consequence of accumulation of cells in G2/M phase. However, the change of cyclin B1 levels is much less significant compared to the increase of Wee1 levels after treatment with these compounds.
HeLa cells were incubated with or without 1.21 µM DH281, DH285 and DH287 for 24 hr. The cells were washed twice with cold 1×PBS and lysed in RAPI buffer (Applygen technologies Inc.) for 30 min and centrifuged at 14,000 rpm for 20 min at 4°C. We separated 15 µl of total protein (1 µg/ µl) with 12% SDS-PAGE gels and transferred the proteins to PVDF membrane. […] The protein bands were detected using ECL System (Piscataway, New Jersey, USA). […]

CDK2/cyclinE(h) = CDK2/cyclinE(h) (Homo sapiens, UniProt P24941); assay: In vitro kinase assay CDK2/cyclinE (33P-ATP); type: biochemical
Description: as §2

Chain of CDK1/cyclinB(h) (P06493 whole entry): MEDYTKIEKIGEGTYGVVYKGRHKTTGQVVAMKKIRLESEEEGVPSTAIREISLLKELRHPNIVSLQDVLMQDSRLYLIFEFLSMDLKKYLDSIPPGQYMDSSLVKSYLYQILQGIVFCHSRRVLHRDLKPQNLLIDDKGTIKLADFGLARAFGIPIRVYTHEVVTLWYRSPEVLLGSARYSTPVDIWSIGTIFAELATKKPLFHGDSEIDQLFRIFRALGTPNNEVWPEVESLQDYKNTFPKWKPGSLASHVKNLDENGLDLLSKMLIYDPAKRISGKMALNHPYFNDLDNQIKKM
Chain of CDK1/cyclinB(h) (P14635 whole entry partner): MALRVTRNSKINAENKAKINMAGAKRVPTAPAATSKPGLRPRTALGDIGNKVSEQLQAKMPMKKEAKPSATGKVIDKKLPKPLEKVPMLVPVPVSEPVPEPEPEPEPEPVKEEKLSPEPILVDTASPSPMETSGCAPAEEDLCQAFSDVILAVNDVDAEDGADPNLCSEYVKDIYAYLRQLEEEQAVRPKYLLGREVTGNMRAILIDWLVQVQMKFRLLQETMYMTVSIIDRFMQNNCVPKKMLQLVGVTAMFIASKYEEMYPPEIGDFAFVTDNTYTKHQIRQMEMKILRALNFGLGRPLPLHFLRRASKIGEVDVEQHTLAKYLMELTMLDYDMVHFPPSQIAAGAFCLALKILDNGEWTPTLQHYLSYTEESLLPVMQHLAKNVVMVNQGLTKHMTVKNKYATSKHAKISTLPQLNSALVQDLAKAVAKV
Chain of PLK2 (Q9NYY3 whole entry, species assumed): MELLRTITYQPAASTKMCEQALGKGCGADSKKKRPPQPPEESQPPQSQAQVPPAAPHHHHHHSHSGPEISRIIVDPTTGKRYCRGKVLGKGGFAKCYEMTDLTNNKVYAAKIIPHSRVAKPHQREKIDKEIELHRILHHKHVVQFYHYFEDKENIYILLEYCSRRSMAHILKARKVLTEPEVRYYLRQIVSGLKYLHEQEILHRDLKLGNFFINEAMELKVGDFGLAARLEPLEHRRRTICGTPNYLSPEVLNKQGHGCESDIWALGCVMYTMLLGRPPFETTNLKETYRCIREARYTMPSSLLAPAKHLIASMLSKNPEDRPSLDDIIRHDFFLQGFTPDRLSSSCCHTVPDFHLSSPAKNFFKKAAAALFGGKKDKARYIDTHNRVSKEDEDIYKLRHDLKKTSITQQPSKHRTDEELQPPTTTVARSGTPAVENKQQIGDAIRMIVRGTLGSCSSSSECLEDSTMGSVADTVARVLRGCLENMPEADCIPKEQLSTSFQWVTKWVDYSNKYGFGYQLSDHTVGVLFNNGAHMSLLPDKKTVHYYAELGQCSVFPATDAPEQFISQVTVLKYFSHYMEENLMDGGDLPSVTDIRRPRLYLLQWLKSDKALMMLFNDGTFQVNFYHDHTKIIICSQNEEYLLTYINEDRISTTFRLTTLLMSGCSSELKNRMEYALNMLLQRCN

| SMILES | cells in G1 (HeLa cells; 0.12 µM, 48 hr) | cells in G2 (G2/M) (HeLa cells; 0.12 µM, 48 hr) | cells in S (HeLa cells; 0.12 µM, 48 hr) | cells in G1 (HeLa cells; 0.48 µM, 48 hr) | cells in G2 (G2/M) (HeLa cells; 0.48 µM, 48 hr) | cells in S (HeLa cells; 0.48 µM, 48 hr) | cells in G1 (HeLa cells; 0.8 µM, 24 hr) | cells in G2 (G2/M) (HeLa cells; 0.8 µM, 24 hr) | cells in S (HeLa cells; 0.8 µM, 24 hr) | cells in G1 (HeLa cells; 0.8 µM, 36 hr) | cells in G2 (G2/M) (HeLa cells; 0.8 µM, 36 hr) | cells in S (HeLa cells; 0.8 µM, 36 hr) | cells in G1 (HeLa cells; 0.8 µM, 48 hr) | cells in G2 (G2/M) (HeLa cells; 0.8 µM, 48 hr) | cells in S (HeLa cells; 0.8 µM, 48 hr) | cells in G1 (HeLa cells; 0.8 µM, 60 hr) | cells in G2 (G2/M) (HeLa cells; 0.8 µM, 60 hr) | cells in S (HeLa cells; 0.8 µM, 60 hr) | cells in G1 (HeLa cells; 1.92 µM, 48 hr) | cells in G2 (G2/M) (HeLa cells; 1.92 µM, 48 hr) | also measured |
| --- | --- | --- | --- | --- | --- | --- | --- | --- | --- | --- | --- | --- | --- | --- | --- | --- | --- | --- | --- | --- | --- |
| Cc1c2c(cc[n+]1Cc1ccccc1)c1ccc(OCc3ccccc3)cc1n2Cc1ccccc1 [DH287] | 77.3% | 6.86% | 15.9% | 64.8% | 14.2% | 21.0% | 64.5% | 10.2% | 25.3% | 54.6% | 15.9% | 29.5% | 49.3% | 13.0% | 37.8% | 30.6% | 16.6% | 52.8% | 51.9% | 21.0% | IC50 (PC3 cells): 2.86 ± 0.19 µM; IC50 (MG63 cells): 1.79 ± 0.29 µM; IC50 (CDK1/cyclinB(h)): 39.4 µM; IC50 (HepG2 cells): 10.7 ± 0.31 µM; difference in the MICs, cdc5-2 compared to wild-type cells [1]: 2 to 4 fold; IC50 (PLK2): 4.3 µM; cyclin B1 protein level [2]: did not show a significant increase of cyclin B1 protein; IC50 (CDK2/cyclinE(h)): > 100 µM |
| Cc1c2c(cc[n+]1Cc1ccccc1)c1ccc(OCc3ccc(F)cc3)cc1n2CCCc1ccccc1 [DH281] | 70.5% | 10.1% | 19.4% | 55.3% | 14.4% | 30.3% | 64.1% | 10.2% | 25.7% | 53.4% | 18.9% | 27.7% | 42.4% | 16.6% | 41.1% | 33.9% | 14.6% | 51.6% | 38.4% | 26.7% | cells in S (HeLa cells; 1.92 µM, 48 hr): 34.9%; IC50 (PC3 cells): 0.94 ± 0.23 µM; IC50 (MG63 cells): 1.6 ± 0.15 µM; IC50 (CDK1/cyclinB(h)): 42.1 µM; IC50 (HepG2 cells): 2.24 ± 0.04 µM; difference in the MICs, cdc5-2 compared to wild-type cells [1]: 2 to 4 fold; IC50 (PLK2): 3.82 µM; cyclin B1 protein level [2]: did not show a significant increase of cyclin B1 protein; IC50 (CDK2/cyclinE(h)): > 100 µM |

Source: paper PMC3463587, “A Series of Beta-Carboline Derivatives Inhibit the Kinase Activity of PLKs” (PLoS ONE, 2012)
